Laboratory results: patent US12329158B2, “Large-scale methods of uniformly coating packaging surfaces with a volatile antimicrobial to preserve food freshness” (AGROFRESH INC., priority 2013, dated 2025)
In brackets after ≈: the same amount, converted by molar mass.

Assays:
Penicillium expansum [1] = assay: Blue mold on apple and pear, contact assay (Example 25); format: in vivo; settings: Contact (dip); rate not given; day 3 at 21 C after 5 days at 1 C
Experimental: A 250 mL solution of each concentration is used to dip two inoculated fruits, one minute per fruit, performed in triplicate per rate. The dipped fruits are then placed back into the clamshells and then into the SnapWare container and incubated at 1° C. for 5 days. […] Volatile application of Compound A results in excellent inhibition of browning and sporulation, whereas all other active ingredients result in no or little inhibition.

Botrytis cinerea [2] = assay: Clamshells treated by sublimation; strawberries (Example 5); format: in vivo; settings: 5 mg
Experimental: (§1) Five milligrams of Compound A was dissolved in 1 ml of ethanol prior to being uniformly administered to the interior of the clamshell by painting or spraying, and then dried for 5 minutes. After coating the clamshells with Compound A using various application techniques (i.e., sublimation, spraying, or painting), eight ethanol-washed strawberries were placed in the clamshell with stem end facing downwards. Each strawberry fruit was wounded using a T15 screwdriver tip to a uniform depth of eight mm (8 mm). […] Uninoculated strawberries were removed from their commercial package, and directly transferred into treated clamshells without any washing or inoculation steps.
(§2) Treated clamshells lids were closed, and then placed at 1° C. for an initial time period of 5 days. Clamshells were then removed from low temperature, and held for a second time period of 6 days at room temperature where the point of inoculation on the strawberry fruits was assessed for indication of disease incidence reported as a percentage (%). Severity of disease incidence was also reported.
This in vivo assay was used to evaluate the ability of Compound A to volatilize from a clamshell in order to control or inhibit fruit infection by pathogenic microorganism, Botrytis cinerea. This experiment was conducted exactly as described in Example 1, with a few exceptions. After equilibrating the clamshell overnight at 21° C., Compound A was administered to the clamshell by sublimation only. Compound A was sublimed onto the surface of the clamshell at a final treatment rate of 5 mg/clamshell. Strawberries were inoculated with Botrytis cinerea, placed within the clamshell for an initial time period of 6 days, and assessed for disease incidence and severity over a second time period of 7 days as described in Example 1.

Botrytis cinerea [3] = assay: In-clamshell Compound A applied by painting, spraying or sublimation; strawberries (Example 1); format: in vivo; settings: 5 mg/clamshell
Experimental: An in vivo assay was used to evaluate the ability of Compound A to volatilize from a clamshell chamber and control pathogenic infection when applied by various techniques. Multiple empty 1-lb PET clamshells (ProducePackaging.com, #036QT) were placed inside triplicate air-tight 36 L chamber (Fisher Scientific, Catalogue #08-642-23C) fitted with a bulkhead septum port (Swagelok, SS-401-61, Solon, OH).
Compound A headspace was permitted to equilibrate overnight at 21° C.
as §1, §2

Diaporthe citrii = assay: Volatile MIC assay (Example 11); format: cell-based; settings: D. citrii
Experimental: (§3) A 3-mL volume of full-strength Potato Dextrose Agar (PDA) is added to each well. After cooling, 1 μL of 1×10^5 spores per mL of Botrytis cinerea, Penicillium expansum, Alternaria alternata, Glomerella cingulata, Penicillium digitatum, Monilinia fruticola, Aspergillus brasiliensis, Colletotrichum acutatum, Fusarium sambucinum, Phytophthora capsici, Geotrichum candidum, Aspergillus niger, Diplodia gossypina or Diaporthe citrii suspension is spotted onto the center of the agar. A Whatman #1 filter disk (Cat. No. 1001-0155) is placed, in duplicate, on the underside of a polyethylene PCR plate sealing film. […] The headspace around the inoculum is then sealed inside the well by the film with the adhering disk containing the fungicide by inverting the plates over the treated disks and sealing to prevent any of the chemical from flaking from the disk and falling onto the inoculated agar. After 3 days of storage at 23° C., cultures are evaluated for percent growth relative to control.

Geotrichum candidum = assay: Volatile MIC assay (Example 11); format: cell-based; settings: G. candidum
Experimental: as §3

Penicillium expansum [4] = assay: Volatile MIC assay (Example 11); format: cell-based; settings: P. expansum
Experimental: as §3

Botrytis cinerea [5] = assay: Volatile MIC assay (Example 11); format: cell-based; settings: B. cinerea
Experimental: as §3

Aspergillus niger = assay: Volatile MIC assay (Example 11); format: cell-based; settings: A. niger
Experimental: as §3

Fusarium sambucinum = assay: Volatile MIC assay (Example 11); format: cell-based; settings: F. sambucinum
Experimental: as §3

OB1OCc2cc(F)ccc21 [Compound A, 5-fluoro-1,3-dihydro-1-hydroxy-2,1-benzoxaborole]
Apple Browning (mm) (Penicillium expansum [1]): 9.9 mm | Apple Sporulation (mm) (Penicillium expansum [1]): 2.3 mm | Pear Browning (mm) (Penicillium expansum [1]): 18.9 mm | Pear Sporulation (mm) (Penicillium expansum [1]): 8.4 mm | Gray Mold Incidence (%) (Botrytis cinerea [2]; Inoculated Fruit, Day 0): 0.0% | Gray Mold Severity (0-4) (Botrytis cinerea [2]; Inoculated Fruit, Day 0): 0.0 | Gray Mold Incidence (%) (Botrytis cinerea [2]; Inoculated Fruit, Day 1): 0.0% | Gray Mold Severity (0-4) (Botrytis cinerea [2]; Inoculated Fruit, Day 1): 0.0 | Gray Mold Incidence (%) (Botrytis cinerea [2]; Inoculated Fruit, Day 2): 0.0% | Gray Mold Severity (0-4) (Botrytis cinerea [2]; Inoculated Fruit, Day 2): 0.0 | Gray Mold Incidence (%) (Botrytis cinerea [2]; Inoculated Fruit, Day 3): 0.0% | Gray Mold Severity (0-4) (Botrytis cinerea [2]; Inoculated Fruit, Day 3): 0.0 | Gray Mold Incidence (%) (Botrytis cinerea [2]; Inoculated Fruit, Day 4): 0.0% | Gray Mold Severity (0-4) (Botrytis cinerea [2]; Inoculated Fruit, Day 4): 0.0 | Gray Mold Incidence (%) (Botrytis cinerea [2]; Inoculated Fruit, Day 5): 16.7% | Gray Mold Severity (0-4) (Botrytis cinerea [2]; Inoculated Fruit, Day 5): 0.1 | Gray Mold Incidence (%) (Botrytis cinerea [2]; Inoculated Fruit, Day 6): 18.8% | Gray Mold Severity (0-4) (Botrytis cinerea [2]; Inoculated Fruit, Day 6): 0.2 | Gray Mold Incidence (%) (Botrytis cinerea [2]; Inoculated Fruit, Day 7): 16.7% | Gray Mold Severity (0-4) (Botrytis cinerea [2]; Inoculated Fruit, Day 7): 0.3 | Gray Mold Incidence (%) (Botrytis cinerea [2]; Uninoculated Fruit, Day 0): 0.0% | Gray Mold Severity (0-4) (Botrytis cinerea [2]; Uninoculated Fruit, Day 0): 0.0 | Gray Mold Incidence (%) (Botrytis cinerea [2]; Uninoculated Fruit, Day 1): 2.6% | Gray Mold Severity (0-4) (Botrytis cinerea [2]; Uninoculated Fruit, Day 1): 0.4 | Gray Mold Incidence (%) (Botrytis cinerea [2]; Uninoculated Fruit, Day 2): 0.1% | Gray Mold Severity (0-4) (Botrytis cinerea [2]; Uninoculated Fruit, Day 2): 1.0 | Gray Mold Incidence (%) (Botrytis cinerea [2]; Uninoculated Fruit, Day 3): 26.3% | Gray Mold Severity (0-4) (Botrytis cinerea [2]; Uninoculated Fruit, Day 3): 1.0 | Gray Mold Incidence (%) (Botrytis cinerea [2]; Uninoculated Fruit, Day 4): 34.1% | Gray Mold Severity (0-4) (Botrytis cinerea [2]; Uninoculated Fruit, Day 4): 1.0 | Gray Mold Incidence (%) (Botrytis cinerea [2]; Uninoculated Fruit, Day 5): 40.0% | Gray Mold Severity (0-4) (Botrytis cinerea [2]; Uninoculated Fruit, Day 5): 1.3 | Gray Mold Incidence (%) (Botrytis cinerea [2]; Uninoculated Fruit, Day 6): 43.3% | Gray Mold Severity (0-4) (Botrytis cinerea [2]; Uninoculated Fruit, Day 6): 1.3 | Gray Mold Incidence (%) (Botrytis cinerea [2]; Uninoculated Fruit, Day 7): 54.1% | Gray Mold Severity (0-4) (Botrytis cinerea [2]; Uninoculated Fruit, Day 7): 1.6 | Gray Mold Incidence (%) (Botrytis cinerea [3]; Inoculated Fruit, Paint, Day 0): 0.0% | Gray Mold Incidence (%) (Botrytis cinerea [3]; Inoculated Fruit, Paint, Day 1): 0.0% | Gray Mold Incidence (%) (Botrytis cinerea [3]; Inoculated Fruit, Paint, Day 2): 0.0% | Gray Mold Incidence (%) (Botrytis cinerea [3]; Inoculated Fruit, Paint, Day 3): 0.0% | Gray Mold Incidence (%) (Botrytis cinerea [3]; Inoculated Fruit, Paint, Day 4): 0.0% | Gray Mold Incidence (%) (Botrytis cinerea [3]; Inoculated Fruit, Paint, Day 5): 0.0% | Gray Mold Incidence (%) (Botrytis cinerea [3]; Inoculated Fruit, Paint, Day 6): 0.0% | Gray Mold Incidence (%) (Botrytis cinerea [3]; Inoculated Fruit, Spray, Day 0): 0.0% | Gray Mold Incidence (%) (Botrytis cinerea [3]; Inoculated Fruit, Spray, Day 1): 0.0% | Gray Mold Incidence (%) (Botrytis cinerea [3]; Inoculated Fruit, Spray, Day 2): 0.0% | Gray Mold Incidence (%) (Botrytis cinerea [3]; Inoculated Fruit, Spray, Day 3): 0.0% | Gray Mold Incidence (%) (Botrytis cinerea [3]; Inoculated Fruit, Spray, Day 4): 0.0% | Gray Mold Incidence (%) (Botrytis cinerea [3]; Inoculated Fruit, Spray, Day 5): 0.0% | Gray Mold Incidence (%) (Botrytis cinerea [3]; Inoculated Fruit, Spray, Day 6): 0.0% | Gray Mold Incidence (%) (Botrytis cinerea [3]; Inoculated Fruit, Sublimation, Day 0): 0.0% | Gray Mold Incidence (%) (Botrytis cinerea [3]; Inoculated Fruit, Sublimation, Day 1): 0.0% | Gray Mold Incidence (%) (Botrytis cinerea [3]; Inoculated Fruit, Sublimation, Day 2): 0.0% | Gray Mold Incidence (%) (Botrytis cinerea [3]; Inoculated Fruit, Sublimation, Day 3): 0.0% | Gray Mold Incidence (%) (Botrytis cinerea [3]; Inoculated Fruit, Sublimation, Day 4): 0.0% | Gray Mold Incidence (%) (Botrytis cinerea [3]; Inoculated Fruit, Sublimation, Day 5): 0.9% | Gray Mold Incidence (%) (Botrytis cinerea [3]; Inoculated Fruit, Sublimation, Day 6): 0.9% | Gray Mold Incidence (%) (Botrytis cinerea [3]; Uninoculated Fruit, Paint, Day 0): 0.0% | Gray Mold Incidence (%) (Botrytis cinerea [3]; Uninoculated Fruit, Paint, Day 1): 0.3% | Gray Mold Incidence (%) (Botrytis cinerea [3]; Uninoculated Fruit, Paint, Day 2): 3.9% | Gray Mold Incidence (%) (Botrytis cinerea [3]; Uninoculated Fruit, Paint, Day 3): 5.1% | Gray Mold Incidence (%) (Botrytis cinerea [3]; Uninoculated Fruit, Paint, Day 4): 7.4% | Gray Mold Incidence (%) (Botrytis cinerea [3]; Uninoculated Fruit, Paint, Day 5): 17.0% | Gray Mold Incidence (%) (Botrytis cinerea [3]; Uninoculated Fruit, Paint, Day 6): 21.7% | Gray Mold Incidence (%) (Botrytis cinerea [3]; Uninoculated Fruit, Spray, Day 0): 0.0% | Gray Mold Incidence (%) (Botrytis cinerea [3]; Uninoculated Fruit, Spray, Day 1): 0.6% | Gray Mold Incidence (%) (Botrytis cinerea [3]; Uninoculated Fruit, Spray, Day 2): 2.1% | Gray Mold Incidence (%) (Botrytis cinerea [3]; Uninoculated Fruit, Spray, Day 3): 4.8% | Gray Mold Incidence (%) (Botrytis cinerea [3]; Uninoculated Fruit, Spray, Day 4): 6.0% | Gray Mold Incidence (%) (Botrytis cinerea [3]; Uninoculated Fruit, Spray, Day 5): 17.9% | Gray Mold Incidence (%) (Botrytis cinerea [3]; Uninoculated Fruit, Spray, Day 6): 19.9% | Gray Mold Incidence (%) (Botrytis cinerea [3]; Uninoculated Fruit, Sublimation, Day 0): 0.0% | Gray Mold Incidence (%) (Botrytis cinerea [3]; Uninoculated Fruit, Sublimation, Day 1): 0.3% | Gray Mold Incidence (%) (Botrytis cinerea [3]; Uninoculated Fruit, Sublimation, Day 2): 1.5% | Gray Mold Incidence (%) (Botrytis cinerea [3]; Uninoculated Fruit, Sublimation, Day 3): 3.3% | Gray Mold Incidence (%) (Botrytis cinerea [3]; Uninoculated Fruit, Sublimation, Day 4): 5.7% | Gray Mold Incidence (%) (Botrytis cinerea [3]; Uninoculated Fruit, Sublimation, Day 5): 16.7% | Gray Mold Incidence (%) (Botrytis cinerea [3]; Uninoculated Fruit, Sublimation, Day 6): 20.2% | MIC (Diaporthe citrii): 2.2 µg/mL (≈ 14.5 µM) | MIC (Geotrichum candidum): 8.9 µg/mL (≈ 58.6 µM) | MIC (Penicillium expansum [4]): 1.1 µg/mL (≈ 7.24 µM) | MIC (Botrytis cinerea [5]): 2.2 µg/mL (≈ 14.5 µM) | MIC (Aspergillus niger): 2.2 µg/mL (≈ 14.5 µM) | MIC (Fusarium sambucinum): 1.1 µg/mL (≈ 7.24 µM)
